Experiment: Hydrolysis in water control (phosphate buffer)
Details: water control (method: phosphate buffer), 37° C., 0-72 h
Method: The 2 μL working solution of either the test compound or the control compound was added and mixed. The samples were incubated at 37° C. and the reaction was stopped by adding 200 μL of quenching solution at 0, 1, 4, 8, 12, 24, 48 and 72 and vortexed vigorously for −1 min. The solution was then centrifuged at 4,000 rpm at 4° C. for 15 min. The 100 μL of the supernatant was removed and mixed with 100 μL distilled water for LC-MS/MS analysis. The 10 μL standard curve working solution was spiked to 190 μL phosphate solution, The 200 μL of quenching solution was added to each standard curve wells. The blank sample was prepared by adding 2 μL of MeOH/DMSO solvent to replace the working solution. The double blank samples was prepared by adding 2 μL of MeOH/DMSO solvent to replace the working solution and by quenching the matrix with acetonitrile/MeOH.

T ½ in water control: No hydrolysis
Substance: mPEG-PrA-Dexa [Compound 2]

Source: patent US20230398233A1, “OCULAR ANTIBODY-DRUG CONJUGATES” (ADS THERAPEUTICS LLC, priority 2020, published 2023)
